Reference: ChEMBL document CHEMBL1201862, “PubChem BioAssay data set” (2004)
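Where inhibition never reached the appropriate level, the endpoint shown equals the highest concentration tested. Otherwise, values were interpolated linearly from a five-concentration, 48-hour dose response in 96-well plates. GI50 is the concentration that inhibits growth by half.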 Calls of active or inactive are those of the source. Rule as the data show it: active = GI50 up to about 1.1 µM and inactive = higher.

Columns and labels:
Assay in all cases: inhibition of tumour cell growth, NCI panel, 48 h
RPMI-8226 = system: RPMI-8226
SNB-75 = system: SNB-75
COLO 205 = system: COLO 205
HOP-92 = system: HOP-92
SK-MEL-2 = system: SK-MEL-2
OVCAR-5 = system: OVCAR-5
OVCAR-3 = system: OVCAR-3
HCT-116 = system: HCT-116
NCI-H522 = system: NCI-H522
NCI-H226 = system: NCI-H226
Malme-3M = system: Malme-3M
HL-60 = system: HL-60
K562 = system: K562
HCC 2998 = system: HCC 2998
SF-268 = system: SF-268
HCT-15 = system: HCT-15
MDA-MB-231 = system: MDA-MB-231
PC-3 = system: PC-3
Hs-578T = system: Hs-578T

| SMILES | GI50 (RPMI-8226) | GI50 (SNB-75) | GI50 (COLO 205) | GI50 (HOP-92) | GI50 (SK-MEL-2) | GI50 (OVCAR-5) | GI50 (OVCAR-3) | GI50 (HCT-116) | GI50 (NCI-H522) | GI50 (NCI-H226) | GI50 (Malme-3M) | GI50 (HL-60) | GI50 (K562) | GI50 (HCC 2998) | GI50 (SF-268) | GI50 (HCT-15) | GI50 (MDA-MB-231) | GI50 (PC-3) | GI50 (Hs-578T) |
| --- | --- | --- | --- | --- | --- | --- | --- | --- | --- | --- | --- | --- | --- | --- | --- | --- | --- | --- | --- |
| C=C1C(=O)O[C@@H]2[C@H]1CCC(C)=C1C=CC(=O)[C@]12C | 6.67 µM (inactive) | 18.9 µM (inactive) | 8.36 µM (inactive) | 6.22 µM (inactive) | 20.7 µM (inactive) | 17.9 µM (inactive) | 16.7 µM (inactive) | 12.2 µM (inactive) | 2.42 µM (inactive) | 22.9 µM (inactive) | > 10 µM (inactive) | 3.3 µM (inactive) | 4.49 µM (inactive) | 13.2 µM (inactive) | 23.9 µM (inactive) |  |  |  |  |
| O=C1OC2(c3ccccc3Oc3ccccc32)c2ccccc21 | > 100 µM (inactive) | > 100 µM (inactive) | > 100 µM (inactive) | > 100 µM (inactive) | > 100 µM (inactive) | > 100 µM (inactive) | > 100 µM (inactive) | > 100 µM (inactive) | 69.8 µM (inactive) | > 100 µM (inactive) | > 100 µM (inactive) | 99.8 µM (inactive) | 50.8 µM (inactive) | > 100 µM (inactive) | > 100 µM (inactive) | > 100 µM |  |  |  |
| O=C(/C=C/c1ccccc1O)c1cccc2ccccc12 | 20.3 µM (inactive) | 48.8 µM (inactive) | > 44.8 µM (inactive) | > 52.2 µM (inactive) | > 100 µM (inactive) | > 100 µM (inactive) | 30.2 µM (inactive) | 27.6 µM (inactive) | 51.9 µM (inactive) | > 46.3 µM (inactive) | > 100 µM (inactive) | 27.9 µM (inactive) | 32 µM (inactive) | > 74.1 µM (inactive) | 48.8 µM (inactive) | 23.7 µM |  |  |  |
| CCOc1ccccc1N1C(=O)C(=O)C(c2nc3ccccc3o2)/C(=N\N)C1=O (stereo not drawn) | > 100 µM (inactive) | 27.7 µM (inactive) | > 100 µM (inactive) | > 100 µM (inactive) | > 100 µM (inactive) | > 100 µM (inactive) | > 100 µM (inactive) | 79.8 µM (inactive) | > 100 µM (inactive) | > 100 µM (inactive) | > 100 µM (inactive) | > 100 µM (inactive) | > 100 µM (inactive) | > 100 µM (inactive) | 55 µM (inactive) | > 100 µM |  |  |  |
| CC(C)c1ccc(/C=C2\CSCC3=C2N=C2SCC(=O)N2C3c2ccc(C(C)C)cc2)cc1 (stereo not drawn) | 80.7 µM (inactive) | > 100 µM (inactive) | > 100 µM (inactive) | > 100 µM (inactive) | > 100 µM (inactive) | > 100 µM (inactive) | > 100 µM (inactive) | > 100 µM (inactive) |  | > 100 µM (inactive) | 96.4 µM (inactive) | > 100 µM (inactive) | > 100 µM (inactive) | > 100 µM (inactive) | > 100 µM (inactive) | > 100 µM | > 100 µM (inactive) | > 100 µM (inactive) | > 100 µM (inactive) |
| O=c1[nH]cnc(NC2C=C(CO)C(O)C2O)c1[N+](=O)[O-] (stereo not drawn) | > 45.9 µM (inactive) | > 100 µM (inactive) | > 62.7 µM (inactive) | > 100 µM (inactive) | > 100 µM (inactive) | > 100 µM (inactive) | > 100 µM (inactive) | > 37.7 µM (inactive) | > 100 µM (inactive) | > 100 µM (inactive) | > 100 µM (inactive) | > 37.2 µM (inactive) | > 100 µM (inactive) | > 100 µM (inactive) | > 100 µM (inactive) | > 40.3 µM |  |  |  |
| CC(=O)O[C@H]1CSC[C@@H](OC(C)=O)C1[N+](=O)[O-] (stereo partly drawn) | 22.5 µM (inactive) | 65.2 µM (inactive) | 21.4 µM (inactive) | 19 µM (inactive) | 27.3 µM (inactive) | > 100 µM (inactive) | 21.5 µM (inactive) | 95.3 µM (inactive) | 19.4 µM (inactive) | > 100 µM (inactive) | 23 µM (inactive) | 23.2 µM (inactive) | 26.4 µM (inactive) | 33.7 µM (inactive) | > 100 µM (inactive) | 30.1 µM |  |  |  |
